Here are results for 28 compounds from patent US8658661B2, “Oxadiazole inhibitors of leukotriene production” (Boehringer Ingelheim International GmbH, priority 2010, dated 2014).

For orientation: IC50 means the concentration that gives 50% inhibition.

Test [1] has as its target T1, recombinant human FLAP protein (Homo sapiens, UniProt P20292).
T1 construct: made in house; host or cells: Sf9 insect cells (100,000×g membrane pellet used)
T1 sequence (P20292 1-161): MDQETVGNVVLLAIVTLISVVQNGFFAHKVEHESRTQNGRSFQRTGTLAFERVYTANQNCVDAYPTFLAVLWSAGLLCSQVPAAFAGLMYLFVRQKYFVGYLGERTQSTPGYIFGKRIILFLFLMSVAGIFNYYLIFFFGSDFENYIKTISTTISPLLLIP
As to the kind of experiment: FLAP binding assay (SPA, displacement of [125I]L-691,831). Particulars: membranes of sf9 cells expressing recombinant human FLAP; [125I]L-691,831 probe; read-out: FLAP binding IC50. A digest of the protocol: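 Membranes from sf9 cells expressing human FLAP in pH 7.5 Tris buffer (MgCl2, EDTA, PMSF). Non-specific binding defined with 10 μM cold L-691,831.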
Background: Loss of bound radioactivity is the signal in a displacement assay; it reports binding, not function.

For test [2], the system named is synthesis of LTB4 in human whole blood. The test can be described thus: Human whole blood assay (inhibition of LTB4 synthesis, calcimycin stimulated). Particulars: heparinized human whole blood, calcimycin 20 μM, plasma LTB4. It is filed as cell-based. The gist of the method: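 LTB4 levels in plasma were measured by antibody-based HTRF after heparinized human whole blood, pretreated with compound (15 min, 37° C), was challenged with 20 μM calcimycin for 30 min at 37° C.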

Each structure is given as a SMILES string.

Regarding `CC(C)C(C)(c1ccc(-c2cnc(N)nc2)cc1)c1noc(C2(C)CCCC2)n1` (centres unmarked) [Example 117, 5-(4-{3-methyl-2-[5-(1-methylcyclopentyl)-1,2,4-oxadiazol-3-yl]butan-2-yl}phenyl)pyrimidin-2-amine], the IC50 in test [1] amounted to 31 nM; in test [2] it was 1200 nM.
As for `CC(C)C(C)(c1ccc(-c2cnc(N)nc2)cc1)c1noc(C2(C)CC2)n1` (centres unmarked) [Example 118, 5-(4-{3-methyl-2-[5-(1-methylcyclopropyl)-1,2,4-oxadiazol-3-yl]butan-2-yl}phenyl)pyrimidin-2-amine], the IC50 in test [1] was 9.9 nM; in test [2] it was 820 nM.
For `CC(C)C(C)(c1ccc(-c2cnc(N)nc2)cc1)c1noc(C2CCCCC2)n1` (centres unmarked) [Example 119, 5-{4-[2-(5-cyclohexyl-1,2,4-oxadiazol-3-yl)-3-methylbutan-2-yl]phenyl}pyrimidin-2-amine] the same measures were 9.2 nM and 900 nM.
The corresponding values for `CC(C)C(C)(c1ccc(-c2cnc(N)nc2)cc1)c1noc(C2(C)CCCCC2)n1` (centres unmarked) [Example 120, 5-(4-{3-methyl-2-[5-(1-methylcyclohexyl)-1,2,4-oxadiazol-3-yl]butan-2-yl}phenyl)pyrimidin-2-amine] are 40 nM and 2100 nM.
For `Cn1cc(-c2nc([C@@](C)(c3ccc(-c4cnc(N)nc4)cc3)C3CCC3)no2)cn1` [Example 121, 5-(4-{(1R)-1-cyclobutyl-1-[5-(1-methyl-1H-pyrazol-4-yl)-1,2,4-oxadiazol-3-yl]ethyl}phenyl)pyrimidin-2-amine] the same measures were 2.6 nM and 91 nM.
Take `Cn1cc(-c2nc([C@](C)(c3ccc(-c4cnc(N)nc4)cc3)C3CCC3)no2)cn1` [Example 122, 5-(4-{(1S)-1-cyclobutyl-1-[5-(1-methyl-1H-pyrazol-4-yl)-1,2,4-oxadiazol-3-yl]ethyl}phenyl)pyrimidin-2-amine]: the IC50 in test [1] was 140 nM; in test [2], 3200 nM.
The corresponding values for `COCCNc1cnc(-c2nc([C@@](C)(c3ccc(-c4cnc(N)nc4)cc3)C(C)C)no2)cn1` [Example 123, 5-{4-[(2R)-2-(5-{5-[(2-methoxyethyl)amino]pyrazin-2-yl}-1,2,4-oxadiazol-3-yl)-3-methylbutan-2-yl]phenyl}pyrimidin-2-amine] are 1.7 nM and 42 nM.
As for `COCCNc1cnc(-c2nc([C@](C)(c3ccc(-c4cnc(N)nc4)cc3)C(C)C)no2)cn1` [Example 124, 5-{4-[(2S)-2-(5-{5-[(2-methoxyethyl)amino]pyrazin-2-yl} 1,2,4-oxadiazol-3-yl)-3-methylbutan-2-yl]phenyl}pyrimidin-2-amine], the values for the IC50 in test [1] and in test [2] were 2.3 nM and 31 nM, respectively.
For `CC(C)C(C)(c1ccc(-c2cnc(N)nc2)cc1)c1noc(-c2ccc(C(N)=O)nc2)n1` (centres unmarked) [Example 125, 5-(3-{2-[4-(2-aminopyrimidin-5-yl)phenyl]-3-methylbutan-2-yl}-1,2,4-oxadiazol-5-yl)pyridine-2-carboxamide], the figures for the IC50 in test [1] and in test [2] were 1.5 nM and 290 nM, respectively.
For `CC(C)C(C)(c1ccc(-c2cnc(N)nc2)cc1)c1noc(-c2c[nH]cn2)n1` (centres unmarked) [Example 126, 5-(4-{2-[5-(1H-imidazol-4-yl)-1,2,4-oxadiazol-3-yl]-3-methylbutan-2-yl}phenyl)pyrimidin-2-amine] the same measures were 4.6 nM and 260 nM.
The corresponding values for `CC(C)C(C)(c1ccc(-c2cnc(N)nc2)cc1)c1noc(-c2cncc3ccccc23)n1` (centres unmarked) [Example 127, 5-(4-{2-[5-(isoquinolin-4-yl)-1,2,4-oxadiazol-3-yl]-3-methylbutan-2-yl}phenyl)pyrimidin-2-amine] are 2.9 nM and 650 nM.
For the compound `CC(C)C(C)(c1ccc(-c2cnc(N)nc2)cc1)c1noc(-c2ccc(C#N)nc2)n1` (centres unmarked) [Example 128, 5-(3-{2-[4-(2-aminopyrimidin-5-yl)phenyl]-3-methylbutan-2-yl}-1,2,4-oxadiazol-5-yl)pyridine-2-carbonitrile], the half-inhibitory concentration (IC50) in test [1] turned out to be 1.6 nM; in test [2], 240 nM.
Turning to `CC(C)C(C)(c1ccc(-c2cnc(N)nc2)cc1)c1noc(-c2cncnc2)n1` (centres unmarked) [Example 129, 5-(4-{3-methyl-2-[5-(pyrimidin-5-yl)-1,2,4-oxadiazol-3-yl]butan-2-yl}phenyl)pyrimidin-2-amine], the IC50 in test [1] was found to be 2 nM; in test [2], 180 nM.
Take `CC(C)C(C)(c1ccc(-c2cnc(N)nc2)cc1)c1noc(-c2cncs2)n1` (centres unmarked) [Example 130, 5-(4-{3-methyl-2-[5-(1,3-thiazol-5-yl)-1,2,4-oxadiazol-3-yl]butan-2-yl}phenyl)pyrimidin-2-amine]: the IC50 stood at 1.4 nM in test [1] and 180 nM in test [2].
For `CC(C)C(C)(c1ccc(-c2cnc(N)nc2)cc1)c1noc(-c2cnco2)n1` (centres unmarked) [Example 132, 5-(4-{3-methyl-2-[5-(1,3-oxazol-5-yl)-1,2,4-oxadiazol-3-yl]butan-2-yl}phenyl)pyrimidin-2-amine] the same measures were 2.8 nM and 330 nM.
As for `Cc1n[nH]c(C)c1-c1nc(C(C)(c2ccc(-c3cnc(N)nc3)cc2)C(C)C)no1` (centres unmarked) [Example 133, 5-(4-{2-[5-(3,5-dimethyl-1H-pyrazol-4-yl)-1,2,4-oxadiazol-3-yl]-3-methylbutan-2-yl}phenyl)pyrimidin-2-amine], the IC50 came out at 1.6 nM in test [1] and 190 nM in test [2].
For `CCNc1nc(C(C)(c2ccc(-c3cnc(N)nc3)cc2)C(C)C)no1` (centres unmarked) [Example 134, 5-(4-{2-[5-(ethylamino)-1,2,4-oxadiazol-3-yl]-3-methylbutan-2-yl}phenyl)pyrimidin-2-amine] the same measures were 8.3 nM and 190 nM.
For `CC(C)C(C)(c1ccc(-c2cnc(N)nc2)cc1)c1noc(-c2ccc(N3CCOCC3)nc2)n1` (centres unmarked) [Example 135, 5-[4-(3-methyl-2-{5-[6-(morpholin-4-yl)pyridin-3-yl]-1,2,4-oxadiazol-3-yl}butan-2-yl)phenyl]pyrimidin-2-amine] the same measures were 1.4 nM and 250 nM.
`CC(C)C(C)(c1ccc(-c2cnc(N)nc2)cc1)c1noc(-c2ccc(C(F)(F)F)nc2)n1` (centres unmarked) [Example 136, 5-[4-(3-methyl-2-{5-[6-(trifluoromethyl)pyridin-3-yl]-1,2,4-oxadiazol-3-yl}butan-2-yl)phenyl]pyrimidin-2-amine]: the results for the IC50 in test [1] and in test [2] were 5.4 nM and 320 nM, respectively.
For `CC(C)C(C)(c1ccc(-c2cnc(N)nc2)cc1)c1noc(-c2cnccn2)n1` (centres unmarked) [Example 137, 5-(4-{3-methyl-2-[5-(pyrazin-2-yl)-1,2,4-oxadiazol-3-yl]butan-2-yl}phenyl)pyrimidin-2-amine] the same measures were 2.8 nM and 77 nM.
Consider `CC(C)C(C)(c1ccc(-c2cnc(N)nc2)cc1)c1noc(C2CCOCC2)n1` (centres unmarked) [Example 138, 5-(4-{3-methyl-2-[5-(tetrahydro-2H-pyran-4-yl)-1,2,4-oxadiazol-3-yl]butan-2-yl}phenyl)pyrimidin-2-amine], for which the IC50 in test [1] came out at 15 nM; in test [2], 760 nM.
The corresponding values for `Cc1ncoc1-c1nc(C(C)(c2ccc(-c3cnc(N)nc3)cc2)C(C)C)no1` (centres unmarked) [Example 140, 5-(4-{3-methyl-2-[5-(4-methyl-1,3-oxazol-5-yl)-1,2,4-oxadiazol-3-yl]butan-2-yl}phenyl)pyrimidin-2-amine] are 4.1 nM and 710 nM.
On to `Cc1ncsc1-c1nc(C(C)(c2ccc(-c3cnc(N)nc3)cc2)C(C)C)no1` (centres unmarked) [Example 141, 5-(4-{3-methyl-2-[5-(4-methyl-1,3-thiazol-5-yl)-1,2,4-oxadiazol-3-yl]butan-2-yl}phenyl)pyrimidin-2-amine], for which the figures for the half-maximal inhibitory concentration (IC50) in test [1] and in test [2] were 1.5 nM and 530 nM, respectively.
The corresponding values for `CNC(=O)Cn1cc(-c2nc(C(C)(c3ccc(-c4cnc(N)nc4)cc3)C(C)C)no2)cn1` (centres unmarked) [Example 142, 2-[4-(3-{2-[4-(2-aminopyrimidin-5-yl)phenyl]-3-methylbutan-2-yl}-1,2,4-oxadiazol-5-yl)-1H-pyrazol-1-yl]-N-methylacetamide] are 1.1 nM and 59 nM.
For `CCC(C)(c1ccc(-c2cnc(N)nc2)cc1)c1noc(-c2ccc(C)nc2)n1` (centres unmarked) [Example 143, 5-(4-{2-[5-(6-methylpyridin-3-yl)-1,2,4-oxadiazol-3-yl]butan-2-yl}phenyl)pyrimidin-2-amine] the same measures were 4.1 nM and 360 nM.
Consider `CC(C)C(C)(c1ccc(-c2cnc(N)nc2)cc1)c1noc(-c2cnn(CCN3CCOCC3)c2)n1` (centres unmarked) [Example 144, 5-{4-[3-methyl-2-(5-{1-[2-(morpholin-4-yl)ethyl]-1H-pyrazol-4-yl}-1,2,4-oxadiazol-3-yl)butan-2-yl]phenyl}pyrimidin-2-amine], for which the IC50 in test [1] is 3.1 nM; in test [2], 26 nM.
Regarding `CC(C)C(C)(c1ccc(-c2cnc(N)nc2)cc1)c1noc(C2(C(=O)O)CCCCC2)n1` (centres unmarked) [Example 145, 1-(3-{2-[4-(2-aminopyrimidin-5-yl)phenyl]-3-methylbutan-2-yl}-1,2,4-oxadiazol-5-yl)cyclohexanecarboxylic acid], the results for the IC50 in test [1] and in test [2] were 17 nM and 2500 nM, respectively.
Turning to `CC(C)C(C)(c1ccc(-c2cnc(N)nc2)cc1)c1noc(-c2cn[nH]c2)n1` (centres unmarked) [Example 146, 5-(4-{3-methyl-2-[5-(1H-pyrazol-4-yl)-1,2,4-oxadiazol-3-yl]butan-2-yl}phenyl)pyrimidin-2-amine], the IC50 is 1.3 nM in test [1] and 46 nM in test [2].
